One data set deals with D283-med cell line. Nature of the data set: Cytotoxicity against D283-med cells. It is filed as cell-based, human.
For a further data set, the system named is SF188 cell line. In words: Cytotoxicity against SF188 cells. It is filed as cell-based, human.
The test system of a further data set is H460 cell line. In words: Cytotoxicity against H460 cells. It is filed as cell-based. To be noted: read-out: H460 IC50; non-small cell lung cancer cell line.
Data set [1] can be described thus: PAMPA-BBB permeability assay. In general terms: The PAMPA barrier holds no transporters, so it reflects passive diffusion.
The mark [2] stands for this setting: read-out: D283-med IC50, medulloblastoma cell line.
Where [3] appears, read: read-out: SF188 IC50, glioblastoma cell line.
The mark [4] stands for this setting: Homo sapiens, D283 Med, read-out: D283-med IC50, medulloblastoma cell line.
Where [5] appears, read: Homo sapiens, SF-188, read-out: SF188 IC50, glioblastoma cell line.

Like-named read-outs stand apart in the source and are kept apart here. A value given as a limit tells only on which side of the number the result lay.

By IC50 is commonly meant the point on the concentration scale where inhibition reaches its midpoint. Take `CC(C)C[C@H](NC(=O)[C@@H]1Cc2c(F)c(F)c(c(F)c2F)Sc2cccc(c2)CC(=O)N[C@@H](C(C)(C)C)C(=O)N1)C(=O)[C@@]1(C)CO1` [Compound 12, (5S,8S)-8-(Tert-butyl)-3^2,3^3,3^5,3^6-tetrafluoro-N-((S)-4-methyl-1-((R)-2-methyloxiran-2-yl)-1-oxopentan-2-yl)-7,10-dioxo-2-thia-6,9-diaza-1(1,3),3(1,4)-dibenzenacycloundecaphane-5-carboxamide]: the half-maximal inhibitory concentration (IC50) in the data set on D283-med cell line (setting [2]) was 432 ± 74 nM; with SF188 cell line (setting [3]), 507 ± 134 nM; with H460 cell line it was 2470 nM.

Take `CC(C)C[C@H](NC(=O)[C@@H](CSc1c(F)c(F)c(F)c(F)c1F)NC(=O)Cc1c(F)c(F)c(F)c(F)c1F)C(=O)[C@@]1(C)CO1` [Compound 5, (S)-N-((S)-4-Methyl-1-((R)-2-methyloxiran-2-yl)-1-oxopentan-2-yl)-2-(2-(perfluorophenyl)acetamido)-3-((perfluorophenyl)thio)propenamide]: the concentration for half-maximal inhibition (IC50) in the data set with D283-med cell line (setting [2]), with SF188 cell line (setting [3]) and in the data set with H460 cell line was above 10000 nM throughout.

On to `CC(C)C[C@H](NC(=O)[C@@H]1Cc2ccc(cc2)SCCCCCC(=O)NC(C)(C)C(=O)N1)C(=O)[C@@]1(C)CO1` [Compound 36, (S)-10,10-Dimethyl-N-((S)-4-methyl-1-((R)-2-methyloxiran-2-yl)-1-oxopentan-2-yl)-8,11-dioxo-2-thia-9,12-diaza-1(1,4)-benzenacyclotetradecaphane-13-carboxamide], for which the IC50 in the data set on D283-med cell line (setting [2]) is 1440 nM; with SF188 cell line (setting [3]), 2260 nM; with H460 cell line it was 2330 nM.

For the compound `CC(C)CC(NC(=O)C1Cc2c(F)c(F)c(c(F)c2F)S(=O)(=O)c2cccc(c2)CC(=O)NC(C(C)C)CC(=O)N1)C(=O)C1(C)CO1` [Compound 25, (5S,9S)-3^2,3^3,3^5,3^6-Tetrafluoro-9-isopropyl-N-((S)-4-methyl-1-((R)-2-methyloxiran-2-yl)-1-oxopentan-2-yl)-7,11-dioxo-2-thia-6,10-diaza-1(1,3),3(1,4)-dibenzenacyclododecaphane-5-carboxamide 2,2-dioxide], the IC50 in the data set with D283-med cell line (setting [2]), in the data set on SF188 cell line (setting [3]) and in the data set with H460 cell line was above 15000 nM in each case.

Turning to `Cn1c(=O)c2[nH]cnc2n(C)c1=O` [Theophylline, reference compound], the recovery in data set [1] (PAMPA, % Recovery, PAMPA-BBB) stood at 96%.

Turning to “(S)-10,10-Dimethyl-N-((S)-4-methyl-1-((R)-2-methyloxiran-2-yl)-1-oxopentan-2-yl)-8,11-dioxo-2-oxa-9,12-diaza-1(1,4)-benzenacyclotetradecaphane-13-carboxamide [Compound 34]”, the IC50 in the data set with D283-med cell line (setting [2]) came out at 2080 nM; in the data set with SF188 cell line (setting [3]) it was 2910 nM; with H460 cell line, 4520 nM.

For `CC(C)C[C@H](NC(=O)CNC(=O)Cc1c(F)c(F)c(F)c(F)c1F)C(=O)[C@@]1(C)CO1` [Compound 7, N-((S)-4-Methyl-1-((R)-2-methyloxiran-2-yl)-1-oxopentan-2-yl)-2-(2-(perfluorophenyl)acetamido)acetamide], the concentration for half-maximal inhibition (IC50) with D283-med cell line (setting [4]) and in the data set with SF188 cell line (setting [5]) was above 10000 nM each time.

As to `CC(C)C[C@H](NC(=O)[C@@H]1Cc2c(F)c(F)c(c(F)c2F)Sc2cccc(c2)CC(=O)NC(C)(C)C(=O)N1)C(=O)[C@@]1(C)CO1` [Compound 20, (S)-3^2,3^3,3^5,3^6-Tetrafluoro-8,8-dimethyl-N-((S)-4-methyl-1-((R)-2-methyloxiran-2-yl)-1-oxopentan-2-yl)-7,10-dioxo-2-thia-6,9-diaza-1(1,3),3(1,4)-dibenzenacycloundecaphane-5-carboxamide], the IC50 worked out at 662 ± 44 nM in the data set on D283-med cell line (setting [2]), 611 ± 85 nM in the data set with SF188 cell line (setting [3]) and 828 ± 57 nM in the data set on H460 cell line.

Consider `CCCCCC(=O)N[C@H](C(=O)NC(CSc1c(F)c(F)c(F)c(F)c1F)C(=O)N[C@@H](CC(C)C)C(=O)[C@@]1(C)CO1)C(C)C` (stereo in doubt) [Compound 1, N-((S)-3-Methyl-1-(((S)-1-(((S)-4-methyl-1-((R)-2-methyloxiran-2-yl)-1-oxopentan-2-yl)amino)-1-oxo-3-((perfluorophenyl)thio)propan-2-yl)amino)-1-oxobutan-2-yl)hexanamide], for which the results for the IC50 with D283-med cell line (setting [4]) and with SF188 cell line (setting [5]) were 236 ± 27 nM and 143 ± 18 nM, respectively. For the same compound, in data set [1] (PAMPA-BBB), the “Mean Permeability” value is given as 0.63 10^−6 cm/sec.

As for `CC(C)C[C@H](NC(=O)[C@@H]1Cc2c(F)c(F)c(c(F)c2F)S(=O)(=O)c2cccc(c2)CC(=O)NCC(=O)N1)C(=O)[C@@]1(C)CO1` [Compound 32, (S)-32,33,35,36-Tetrafluoro-N-((S)-4-methyl-1-((R)-2-methyloxiran-2-yl)-1-oxopentan-2-yl)-7,10-dioxo-2-thia-6,9-diaza-1(1,3),3(1,4)-dibenzenacycloundecaphane-5-carboxamide 2,2-dioxide], the IC50 with D283-med cell line (setting [2]) amounted to 563 ± 46 nM; in the data set on SF188 cell line (setting [3]), 7230 nM; with H460 cell line, 4540 nM.

As for `CC(C)C[C@@H](NC(=O)[C@@H]1Cc2ccc(cc2)S(=O)(=O)CCCCCC(=O)NC(C)(C)C(=O)N1)C(=O)[C@@]1(C)CO1` [Compound 37, (S)-10,10-Dimethyl-N-((R)-4-methyl-1-((R)-2-methyloxiran-2-yl)-1-oxopentan-2-yl)-8,11-dioxo-2-thia-9,12-diaza-1(1,4)-benzenacyclotetradecaphane-13-carboxamide 2,2-dioxide], the half-inhibitory concentration (IC50) in the data set with D283-med cell line (setting [2]) is 590 ± 20 nM; in the data set with SF188 cell line (setting [3]), 4420 nM; with H460 cell line, 1720 nM.

With `CCCCCC(=O)N[C@H](C(=O)N[C@@H](CCS(C)(=O)=O)C(=O)N[C@@H](CC(C)C)C(=O)[C@@]1(C)CO1)C(C)C` [Carmaphycin B, reference compound], the figures for the IC50 with D283-med cell line (setting [2]), in the data set on SF188 cell line (setting [3]) and in the data set with H460 cell line were 13 ± 2 nM, 19 ± 2 nM and 111 ± 30 nM, respectively.

Consider `CC(C)C[C@H](NC(=O)[C@@H]1Cc2c(F)c(F)c(c(F)c2F)Sc2cccc(c2)CC(=O)N2C[C@H]3[C@@H]([C@H]2C(=O)N1)C3(C)C)C(=O)[C@@]1(C)CO1` [Compound 13, (61S,64S,65R,9S)-1^2,1^3,1^5,1^6-Tetrafluoro-6^6,6^6-dimethyl-N-((S)-4-methyl-1-((R)-2-methyloxiran-2-yl)-1-oxopentan-2-yl)-5,7-dioxo-2-thia-6^3,8-diaza-6(3,4)-bicyclo[3.1.0]hexana-1(1,4),3(1,3)-dibenzenacyclodecaphane-9-carboxamide], for which the IC50 in the data set on D283-med cell line (setting [2]), in the data set with SF188 cell line (setting [3]) and with H460 cell line was above 15000 nM each time.

On to `Cn1cc(CNCC2CCN(c3ncc(C(=O)NO)cn3)CC2)c2ccccc21` [Quisinostat, reference compound], for which the concentration for half-maximal inhibition (IC50) was 30 to 43 nM in the data set on D283-med cell line (setting [4]); 37 ± 2 nM with D283-med cell line (setting [2]); 30 to 43 nM in the data set on SF188 cell line (setting [5]); 43 ± 2 nM in the data set on SF188 cell line (setting [3]); 30 ± 3 nM with H460 cell line.

For the compound `CC(C)C[C@H](NC(=O)[C@@H](CSc1c(F)c(F)c(F)c(F)c1F)NC(=O)c1cc(Cl)ccc1Cl)C(=O)[C@@]1(C)CO1` [Compound 6, 2,5-Dichloro-N-((S)-1-(((S)-4-methyl-1-((R)-2-methyloxiran-2-yl)-1-oxopentan-2-yl)amino)-1-oxo-3-((perfluorophenyl)thio)propan-2-yl)benzamide], the results for the IC50 with D283-med cell line (setting [4]) and in the data set on SF188 cell line (setting [5]) were above 10000 nM and 4080 ± 770 nM, respectively.

As for `CC(C)C[C@H](NC(=O)[C@@H]1Cc2c(F)c(F)c(c(F)c2F)S(=O)(=O)c2ccc(cc2)CCC(=O)N[C@@H](C(C)C)C(=O)N1)C(=O)[C@@]1(C)CO1` [Compound 29, (5S,8S)-3^2,3^3,3^5,3^6-Tetrafluoro-8-isopropyl-N-((S)-4-methyl-1-((R)-2-methyloxiran-2-yl)-1-oxopentan-2-yl)-7,10-dioxo-2-thia-6,9-diaza-1,3(1,4)-dibenzenacyclododecaphane-5-carboxamide 2,2-dioxide], the IC50 in the data set with D283-med cell line (setting [2]) came to 146 ± 29 nM; with SF188 cell line (setting [3]), 150 ± 12 nM; in the data set on H460 cell line, 470 ± 154 nM.

For “(5S,8S)-3^2,3^3,3^5,3^6-Tetrafluoro-8-isopropyl-9-methyl-N-((S)-4-methyl-1-((R)-2-methyloxiran-2-yl)-1-oxopentan-2-yl)-7,10-dioxo-2-thia-6,9-diaza-1(1,3),3(1,4)-dibenzenacycloundecaphane-5-carboxamide 2,2-dioxide [Compound 30]”, the IC50 worked out at 1470 nM in the data set with D283-med cell line (setting [2]), 1680 nM in the data set on SF188 cell line (setting [3]) and 3200 nM in the data set with H460 cell line.

For `CC(C)C[C@H](NC(=O)C(CSc1c(F)c(F)c(F)c(F)c1F)NC(=O)[C@@H](NC(=O)Cc1c(F)c(F)c(F)c(F)c1F)C(C)C)C(=O)[C@@]1(C)CO1` (stereo in doubt) [Compound 3, (S)-3-Methyl-N-((S)-1-(((S)-4-methyl-1-((R)-2-methyloxiran-2-yl)-1-oxopentan-2-yl)amino)-1-oxo-3-((perfluorophenyl)thio)propan-2-yl)-2-(2-(perfluorophenyl)acetamido)butanamide], the values for the IC50 in the data set with D283-med cell line (setting [4]) and in the data set on SF188 cell line (setting [5]) were 102 ± 7 nM and 213 ± 10 nM, respectively.

By Papp is commonly meant a coefficient for how fast a substance crosses the barrier. In data set [1] (PAMPA), `Cc1ncc2n1-c1ccc(Cl)cc1C(c1ccccc1F)=NC2` [Midazolam, reference compound] registered a Papp of 6.8 ×10⁻⁶ cm/s and a recovery of 84%.

As to `CC(C)C[C@H](NC(=O)CNC(=O)c1cc(Cl)ccc1Cl)C(=O)[C@@]1(C)CO1` [Compound 8, 2,5-Dichloro-N-(2-(((S)-4-methyl-1-((R)-2-methyloxiran-2-yl)-1-oxopentan-2-yl)amino)-2-oxoethyl)benzamide], the IC50 with D283-med cell line (setting [4]) came to 3700 ± 270 nM; with SF188 cell line (setting [5]) it was 532 ± 23 nM.

Regarding `CC(C)C[C@H](NC(=O)[C@@H]1Cc2c(F)c(F)c(c(F)c2F)Sc2ccc(cc2)CC(=O)N[C@@H](C(C)C)C(=O)N1)C(=O)[C@@]1(C)CO1` [Compound 9, (5S,8S)-3^2,3^3,3^5,3^6-Tetrafluoro-8-isopropyl-N-((S)-4-methyl-1-((R)-2-methyloxiran-2-yl)-1-oxopentan-2-yl)-7,10-dioxo-2-thia-6,9-diaza-1,3(1,4)-dibenzenacycloundecaphane-5-carboxamide], the IC50 in the data set with SF188 cell line (setting [3]) was 87 nM; in the data set with H460 cell line, 754 nM.

These data come from PMC13626384 (Journal of medicinal chemistry, 2025).
